Reference: patent publication US12391701B2, “Chromene-based compounds, methods and uses thereof” (University of Minho, priority 2019, dated 2025)

Assays:
glioma cell line U87 = assay: Cell viability MTS assay, U87; assay type: cell-based; details: Homo sapiens, 72 hours
Method: In an embodiment, the antiproliferative activity of compounds MC408, MC409, MC421 and MC406 was further determined against glioma cell lines (U87, GAMG and GL18) and acute leukemia cell lines (HL-60, KG-1 and Jurkat). This was done in order to evaluate if the compounds presented an equally interesting anticancer profile in other cancer cell models. Cell viability was determined using the MTS assay, after exposure of the cells to the respective compounds for 72 hours at appropriate concentration ranges to determine the respective IC50 values.
In an embodiment, three human breast cancer cell lines Hs578T, MDA-MB-468 and MCF-7, and a normal breast cell line MCF-10A, were obtained from ATCC (American Type Culture Collection). The cancer cell lines were cultured in Dulbecco's modified Eagle medium, 4.5 g/l glucose (DMEM, Gibco) supplemented with 10% heating inactivated Fetal Bovine Serum (FBS, Gibco) and 1% antibiotic solution (Penicillin-Streptomycin, Gibco). The normal cell line was cultured in Dulbecco's Modified Eagle Medium: Nutrient Mixture F-12 (DMEM/F12, Gibco) supplemented with 5% heating inactivated FBS (Gibco), 1% antibiotic solution (Penicillin-Streptomycin, Gibco), 1% steroid hormone (Hydrocortisone, Sigma-Aldrich), 0.1% peptide hormone (Insulin, Sigma-Aldrich) and 0.01% protein complex (Cholera Toxin, Gibco). Two distinct human acute myeloid leukemia (AML) cell lines, HL-60 (FAB M2) and KG-1 (erythroleukemia-FAB M6), and one human lymphoblastic leukemia (ALL) cell line, Jurkat (T cell type), were also used. These three cell lines were obtained from German Collection of Microorganisms and Cell cultures (DMSZ®, Deutsche Sammlung von Mikroorganismen and Zellkulturen in German). Cells were cultured in RPMI 1640 medium (Biochrom®-Merck Millipore) supplemented with 10% heating inactivated FBS (Biochrom®-Merck Millipore) and 1% antibiotic/antimitotic mixture (Invitrogen®). Three human glioblastoma (GBM) cell line models, two established and commercially available cell lines (U87MG and GAMG, kind gift from Rui M. Reis) and one primary GBM culture (GLIB) were also used. GBM cells were cultures in DMEM (Biochrom-Merck Millipore), all supplemented with 10% FBS. The Renal cell carcinoma cell lines A498, 786-O, Caki-2 and HK2 were obtained from ATCC. The cancer cell line A498 was cultured in MEM medium (Biochrom®-Merck Millipore), 786-O was cultured in RPMI 1640 medium (Biochrom®-Merck Millipore), Caki-2 was cultured in Mc Coys medium (Biochrom®-Merck Millipore) and HK2 was cultured in RPMI 1640 medium (Biochrom®-Merck Millipore). All the media were supplemented with 10% heat inactivated FBS (Biochrom®-Merck Millipore) and 1% antibiotic/antimitotic mixture (Invitrogen®). All cells were grown in a humidified incubator at 37° C. and 5% CO2. […]

786-O cells = assay: Annexin V/PI flow cytometry, 786-O; assay type: cell-based; details: IC50 concentration; 24 h
From the text: In an embodiment, to understand the mechanisms leading to cell death, cells were studied for the induction of apoptosis by flow cytometry. […] Externalization of phosphatidylserine occurs during the early apoptotic events. While annexin V binds to phosphatidylserine, PI stains only cells that have lost their membrane integrity, an experimental procedure which allows the discrimination between viable cells, early apoptotic cells, late apoptotic/necrotic cells or necrotic cells.
In an embodiment, MCF-7, Hs578t and 786-O cells were seeded in 6-well culture plates and allowed to adhere over 18-20 hours in a complete DMEM (for MCF-7 and Hs578t cells) and complete RPMI (for 786-O cells) medium to detect apoptosis via flow cytometry analysis. […] Triplicates were performed in each experiment. Floating and adherent cells were collected and combined by centrifugation. Elimination of the supernatant was followed by addition of 1 mL of Binding Buffer. 8 μL FITC annexin V (556419, BD Pharmingen) and 30 μl of PI (50 μg/mL, P1304MP, Invitrogen) were added to the cell pellet. Samples were incubated in the dark for 15 min at room temperature. A further 200 μL of Binding Buffer was added to each sample. PI signal was measured using FACS LSRII flow cytometer (BD Biosciences®) with 488 nm excitation laser. […] The percentage of cells in each phase was analysed using the FlowJo 7.6 (Tree Star®) software. […]

| SMILES | IC50 (glioma cell line U87) [µM] | induction of cell death by apoptosis (annexin V/PI) (786-O cells) |
| --- | --- | --- |
| COc1cccc2c1Oc1nc(-c3ccc(Br)cc3)[nH]c1C2C1c2cccc(OC)c2Oc2nc(-c3ccc(Br)cc3)[nH]c21 (stereo not drawn) [MC421, 2,2′-bis(4-bromophenyl)-5,5′-dimethoxy-1,1,9,9′-tetrahydro-9,9′-bichromeno[2,3-]imidazoles] | 0.034 | inducing cell death by apoptosis (early apoptosis) |
| COc1cccc2c1Oc1nc(-c3ccc(Br)cc3)[nH]c1C2 [MC408, 2-(4-bromophenyl)-5-methoxy-3,9-dihydrochromeno[2,3-d]imidazoles] | 1.85 | inducing cell death by apoptosis (early apoptosis) |
| COc1cccc2c1Oc1nc(-c3ccc(F)cc3)[nH]c1C2 [MC409, 2-(4-fluorophenyl)-5-methoxy-3,9-dihydrochromeno[2,3-d]imidazoles] | 0.37 |  |
| COc1cccc2c1Oc1nc(-c3ccc(F)cc3)[nH]c1C2C1c2cccc(OC)c2Oc2nc(-c3ccc(F)cc3)[nH]c21 (stereo not drawn) [MC406, 2,2′-bis(4-fluorophenyl)-5,5′-dimethoxy-1,1,9,9′-tetrahydro-9,9′-bichromeno[2,3-]imidazoles] | 0.17 |  |
